Consider five compounds from patent US20070231273A1, “Method for Decreasing Blood Glucose Levels” (priority 2006, published 2007).

The subject of data set [1] is sulfonylurea (SUR) receptors of KATP channels. As to conditions: rat cerebral cortex, hippocampus, and striatum; cited from earlier work.
Data set [2] concerns rat pancreatic β-cells. As to the kind of experiment: Nystatin-perforation whole-cell recording in current-clamp mode (membrane potential). The class given is cell-based. Particulars: 100 μM; for effect on membrane potential: in the presence of 10 μM nifedipine. As for the experimental part: (§1) Pancreatic β-cell isolation. Isolation of rat islets was performed as previously described. In short, male adult rats (Wistar) were anesthetized with diethyl ether, and 10 ml of Hank's buffered saline (HBSS) containing collagenase (200 U/ml, Wako Chem., Japan) was injected into the common bile duct. The pancreas, swollen with digestion solution, was quickly excised and incubated in a plastic culture bottle for 20 min at 37° C. The suspension obtained by shaking the bottle was filtered through 0.5 mm metal mesh and washed with HBSS, which included 2% bovine serum albumin (BSA). […] After washing with HBSS, which contained 2% BSA, islets were cultured for 24 h with 5% CO2 in the tissue culture medium. Separation of islets was carried out using dispase (1000 U/ml, Godo Shusei, Japan) as previously described. Separated cells were again cultured for 1-4 days. […] Patch-clamp recordings. Cultured β-cells were kept in a 35-mm Petri dish, and the dish was placed on the stage of an inverted microscope (IMT-2, Olympus, Tokyo, Japan). Membrane potentials and membrane currents were measured using a patch-clamp amplifier (EPC-7, List Electronic, Darmstadt, Germany). The nystatin-perforation method was used to measure the membrane potential and the standard method was used to measure whole-cell currents. […] In order to measure whole-cell membrane current, voltage ramp pulses from −90 to −50 mV were repeatedly applied using a ramp pulse generator (SET-2100, Nihon Kohden, Tokyo, Japan). […] Series resistance below 12 MΩ was accepted. Single channel current recordings were carried out by the cell-attached and inside-out configurations. All electrophysiological experiments were carried out at room temperature (22±1° C.). Data of single channel currents were low-pass filtered at 1 KHz, digitized at 10 KHz and analyzed using a single channel current analysis program (Clampfit 9.2, Axon Instruments, Foster City, Calif.). The concentration-inhibition curve created by iptakalim was fitted using Origin 5.0 (Microcal, North Hampton, Mass.).
Solutions and Drugs. […]

Data set [3] has as its target T1, β-cell KATP channels (Rattus norvegicus, UniProt P70673+Q09429). Description: Cell-attached single channel recording of KATP channels. In kind it is cell-based. Also on record: the effects of iptakalim on KATP channels expressed in rat pancreatic β-cells were examined; endogenous in cells; host or cells: primary pancreatic β-cells from male adult Wistar rats. Here is the method:
as §1
(§2) Solutions and Drugs. The standard external solution contained (in mM): 135 NaCl, 5.6 KCl, 1.2 MgCl2, 1 CaCl2, 5 glucose, 10 HEPES and pH 7.3 adjusted with KOH. For perforated patch membrane potential recording, the pipette solution contained (in mM): 100 K-gluconate, 35 KCl, 5 glucose, 0.5 EGTA, 10 HEPES, 200 μg/ml nystatin (Sigma, St. Louis, Mo., USA) and pH 7.2. For conventional whole-cell current recording, the pipette solution contained (in mM): 100 K-gluconate, 35 KCl, 1.2 MgCl2, 5 glucose, 0.5 EGTA, 10 HEPES and pH 7.2. For cell-attached and inside-out single channel recordings, the pipette solution contained (in mM): 135 KCl, 1.2 MgCl2, 5 glucose, 0.5 EGTA, 10 HEPES and pH 7.3. The ionic composition of the solution inside the membrane (bath solution) in inside-out recordings was the same as the pipette solution, but the pH of this solution was 7.2. When performing inside-out recordings, ATP was added to the bath solution at various concentrations.

For data set [4], the system named is rat β-cells. As to the kind of experiment: Fura-2 Ca2+ imaging of intracellular Ca2+ concentrations. In kind it is cell-based. As to conditions: 100 μM bath-applied; sensitive to nifedipine. Here is the method:
Fura-2 Ca^2+ imaging. Isolated islets were placed in a glass-bottom culture dish and then loaded with a HEPES buffer solution (in mM: NaCl 140, KCl 4.7, MgCl2 1.2, CaCl2 1.0, glucose 10 and HEPES 10) containing 1 μM fura-2/AM (Dojin, Kumamoto, Japan) for 20 min at room temperature. Ca^+ images were captured using an inverted microscope with 40× Plan-Neofluar objectives (Axiovert 135, Zeiss, Oberkochen, Germany), a silicon intensifier target camera and recorded on a fluorescence-imaging system (Argus 50/CA, Hamamatsu Photonics, Hamamatsu, Japan). Excitation wavelengths were 340 nm and 380 nm, selected from a Xenon light source, and emission wavelength was 510 nm. A change in free intracellular Ca^2+ concentration ([Ca^2+]i) was calculated based on the change in ratio of two fluorescence intensities, F340/F380 (24). All microfluorimetric experiments were carried out at room temperature (22±1° C.).
Iptakalim elevated intracellular Ca^2+ concentrations. Referring to FIGS. 15-18, in order to test whether iptakalim-induced membrane depolarization triggers Ca^2+ influx through voltage-sensitive Ca^2+ channels, intracellular Ca^2+ concentrations were measured using fura-2 florescence imaging.

Data set [5] has as its system rat pancreatic islets. As to the kind of experiment: Measurement of insulin release from isolated islets (RIA). Particulars: versus basal at 5.5 mM glucose. The class given is cell-based. Here is the method: Measurement of insulin release. Isolated islets were hand-picked under microscopy, and ten islets were distributed to each 35-mm Petri dish with 3 ml of HBSS containing 5.5 mM glucose, 20 mM HEPES, and 2% BSA. After pre-incubation for 60 min, islets were exposed to 100 nM BIM for 60 min, and then stimulated by high glucose (22.5 mM), tolbutamide (0.5 mM) or iptakalim (0.1 mM) for 30 min. Before and after glucose stimulation, some samples were collected for measurement of immuno-reactive insulin (IRI), and stored at −20° C. until the assay. IRI was measured by RIA using anti-human insulin antibody with rat insulin standard (Radio-immunoassay Kit, Insulin “Eiken”, Tokyo Japan).
Iptakalim increased insulin release from rat pancreatic islets. Turning finally to FIG. 19, the effects of iptakalim were examined on insulin release. […] With glucose at 5.5 mM in the external solution, basal insulin secretion was observed. Application of 22.5 mM glucose increased insulin secretion about 3-fold (p<0.01, n=6), 500 μM tolbutamide increased insulin secretion about 2.5-fold (p<0.01, n=6), and 100 μM iptakalim increased insulin secretion about 1.5-fold (p<0.05, n=8). Each group was averaged from 5-7 cells tested. Vertical bars indicate SE.

Data set [6] concerns the target T2, Kir6.2/SUR1 (Homo sapiens, UniProt Q09428+Q14654).
T2 construct: expressed in transfected cells; host or cells: HEK 293
As to the kind of experiment: Transfected Kir6.2/SUR1 cell line (HEK 293), data not shown. In kind it is cell-based. The text has this:
It is well known that KATP channels are expressed in a variety of tissues with different SUR subunits. For instance, cardiovascular KATP channels are formed by Kir6.2-SUR2A, pancreatic β-cell KATP channels are formed by Kir6.2-SUR1, while midbrain dopamine neurons are formed by Kir6.2-SUR1 (15,25-27) or Kir6.2-SUR2B. This diversity in SUR subunit expression results in different sensibilities to metabolic stress agents and KATP channel openers.

The subject of data set [7] is smooth muscle cells isolated from pulmonary artery. As to conditions: patch-clamp whole-cell; also isolated rat aorta denuded vascular endothelium; cited from earlier work.
Data set [8] has as its system KATP channel. As to conditions: cited from earlier work.
In data set [9] the test system is primary cultured hippocampal neurons. Particulars: K+, but not Na+ and Ca2+; cited from earlier work.
The conditions of data set [10]: cited from earlier work.
Data set [11] deals with T1, β-cell KATP channels. Description: Conventional whole-cell voltage-clamp, ramp pulse-induced KATP channel currents. In kind it is cell-based. On the set-up: the effects of iptakalim on KATP channels expressed in rat pancreatic β-cells were examined; endogenous in cells; host or cells: primary pancreatic β-cells from male adult Wistar rats. Particulars: for effect on ramp pulse-induced KATP channel whole-cell current: ramp −90 to −50 mV, glucose 5.5 mM. Here is the method:
as §1
as §2, with “The ionic composition of the solution inside the membrane (bath solution) in inside-out recordings was the same as the pipette solution, but the pH of this solution was 7.2. When performing inside-out recordings, ATP was added to the bath solution at various concentrations.” left out

In data set [12] the target is T1, β-cell KATP channels. Description: Inside-out patch single channel recording of KATP channels. In kind it is biochemical. Also on record: the effects of iptakalim on KATP channels expressed in rat pancreatic β-cells were examined; endogenous in cells; host or cells: primary pancreatic β-cells from male adult Wistar rats. As to conditions: 100 μM. Here is the method: Pancreatic β-cell isolation. Isolation of rat islets was performed as previously described. In short, male adult rats (Wistar) were anesthetized with diethyl ether, and 10 ml of Hank's buffered saline (HBSS) containing collagenase (200 U/ml, Wako Chem., Japan) was injected into the common bile duct. The pancreas, swollen with digestion solution, was quickly excised and incubated in a plastic culture bottle for 20 min at 37° C. The suspension obtained by shaking the bottle was filtered through 0.5 mm metal mesh and washed with HBSS, which included 2% bovine serum albumin (BSA). […] After washing with HBSS, which contained 2% BSA, islets were cultured for 24 h with 5% CO2 in the tissue culture medium. Separation of islets was carried out using dispase (1000 U/ml, Godo Shusei, Japan) as previously described. Separated cells were again cultured for 1-4 days. […] Patch-clamp recordings. Cultured β-cells were kept in a 35-mm Petri dish, and the dish was placed on the stage of an inverted microscope (IMT-2, Olympus, Tokyo, Japan). Membrane potentials and membrane currents were measured using a patch-clamp amplifier (EPC-7, List Electronic, Darmstadt, Germany). […] Data of single channel currents were low-pass filtered at 1 KHz, digitized at 10 KHz and analyzed using a single channel current analysis program (Clampfit 9.2, Axon Instruments, Foster City, Calif.). […]

Data set [13] has as its target T1, β-cell KATP channels. As to the kind of experiment: Preliminary experiments on β-cell KATP channels (data not shown). Also on record: endogenous in cells; host or cells: β-cells (preparation not described for these experiments). In kind it is cell-based.
The mark [14] stands for this setting: 100 μM bath-application, Vp 0 mV.

T1 sequence (P70673 whole entry): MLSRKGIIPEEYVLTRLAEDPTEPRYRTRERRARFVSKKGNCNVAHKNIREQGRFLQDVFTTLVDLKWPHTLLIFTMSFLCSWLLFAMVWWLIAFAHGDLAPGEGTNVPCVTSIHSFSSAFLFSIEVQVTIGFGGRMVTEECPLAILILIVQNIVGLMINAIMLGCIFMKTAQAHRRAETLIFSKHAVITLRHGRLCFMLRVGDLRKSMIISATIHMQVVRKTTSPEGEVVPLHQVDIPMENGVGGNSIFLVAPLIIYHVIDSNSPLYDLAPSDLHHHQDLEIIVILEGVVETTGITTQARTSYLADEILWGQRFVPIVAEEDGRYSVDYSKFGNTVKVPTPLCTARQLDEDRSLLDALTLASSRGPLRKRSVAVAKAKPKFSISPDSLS
T1 sequence (Q09429 whole entry): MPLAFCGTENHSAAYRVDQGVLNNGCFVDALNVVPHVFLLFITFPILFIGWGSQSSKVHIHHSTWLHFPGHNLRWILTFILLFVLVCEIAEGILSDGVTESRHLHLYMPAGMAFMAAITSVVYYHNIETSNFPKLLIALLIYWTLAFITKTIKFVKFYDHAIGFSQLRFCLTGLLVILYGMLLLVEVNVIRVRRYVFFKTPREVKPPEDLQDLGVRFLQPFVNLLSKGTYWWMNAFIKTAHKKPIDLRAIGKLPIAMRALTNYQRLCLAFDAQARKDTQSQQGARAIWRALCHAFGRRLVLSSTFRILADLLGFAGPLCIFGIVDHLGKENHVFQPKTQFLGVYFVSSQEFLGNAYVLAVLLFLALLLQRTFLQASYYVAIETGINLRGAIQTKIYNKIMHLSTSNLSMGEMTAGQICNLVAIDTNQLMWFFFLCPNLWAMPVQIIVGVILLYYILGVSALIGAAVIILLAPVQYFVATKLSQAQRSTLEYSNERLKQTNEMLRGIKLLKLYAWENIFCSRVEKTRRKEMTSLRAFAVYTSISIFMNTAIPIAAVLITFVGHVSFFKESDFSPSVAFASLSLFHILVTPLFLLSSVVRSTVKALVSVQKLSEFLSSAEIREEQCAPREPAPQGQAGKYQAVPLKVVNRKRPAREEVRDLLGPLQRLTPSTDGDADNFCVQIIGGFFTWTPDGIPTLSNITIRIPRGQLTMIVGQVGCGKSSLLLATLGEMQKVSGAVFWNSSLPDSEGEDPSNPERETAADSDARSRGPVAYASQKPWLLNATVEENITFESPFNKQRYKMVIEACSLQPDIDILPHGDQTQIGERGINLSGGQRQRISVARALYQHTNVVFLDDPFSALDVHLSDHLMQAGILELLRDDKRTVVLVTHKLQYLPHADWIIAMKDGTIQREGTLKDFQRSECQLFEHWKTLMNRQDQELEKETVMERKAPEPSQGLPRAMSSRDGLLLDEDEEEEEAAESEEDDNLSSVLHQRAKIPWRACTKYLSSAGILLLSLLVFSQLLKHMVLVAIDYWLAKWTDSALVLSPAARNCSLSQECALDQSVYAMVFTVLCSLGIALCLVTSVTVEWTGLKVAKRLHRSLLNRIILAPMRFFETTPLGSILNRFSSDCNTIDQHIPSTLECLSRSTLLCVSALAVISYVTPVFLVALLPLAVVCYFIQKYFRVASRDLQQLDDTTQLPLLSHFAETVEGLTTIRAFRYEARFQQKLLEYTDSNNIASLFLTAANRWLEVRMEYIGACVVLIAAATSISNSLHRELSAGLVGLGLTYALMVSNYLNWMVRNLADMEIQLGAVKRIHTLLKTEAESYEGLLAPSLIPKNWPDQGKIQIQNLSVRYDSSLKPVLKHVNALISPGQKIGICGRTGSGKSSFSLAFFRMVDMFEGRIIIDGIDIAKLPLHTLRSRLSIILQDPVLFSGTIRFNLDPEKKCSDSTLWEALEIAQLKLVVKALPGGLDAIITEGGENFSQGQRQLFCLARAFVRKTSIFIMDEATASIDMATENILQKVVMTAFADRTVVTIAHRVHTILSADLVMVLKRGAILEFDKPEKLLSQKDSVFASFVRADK
T2 sequence (Q14654 whole entry): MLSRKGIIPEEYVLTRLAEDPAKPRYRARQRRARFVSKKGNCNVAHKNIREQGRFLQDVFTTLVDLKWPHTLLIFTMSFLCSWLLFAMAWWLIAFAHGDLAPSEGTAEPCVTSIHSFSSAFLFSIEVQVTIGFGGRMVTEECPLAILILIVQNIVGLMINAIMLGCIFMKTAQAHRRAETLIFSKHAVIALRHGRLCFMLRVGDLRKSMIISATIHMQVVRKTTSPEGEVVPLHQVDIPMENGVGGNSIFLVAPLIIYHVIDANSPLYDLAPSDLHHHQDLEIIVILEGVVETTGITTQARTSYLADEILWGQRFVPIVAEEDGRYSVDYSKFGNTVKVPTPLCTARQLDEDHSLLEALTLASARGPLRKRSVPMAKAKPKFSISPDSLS
T2 sequence (Q09428 whole entry): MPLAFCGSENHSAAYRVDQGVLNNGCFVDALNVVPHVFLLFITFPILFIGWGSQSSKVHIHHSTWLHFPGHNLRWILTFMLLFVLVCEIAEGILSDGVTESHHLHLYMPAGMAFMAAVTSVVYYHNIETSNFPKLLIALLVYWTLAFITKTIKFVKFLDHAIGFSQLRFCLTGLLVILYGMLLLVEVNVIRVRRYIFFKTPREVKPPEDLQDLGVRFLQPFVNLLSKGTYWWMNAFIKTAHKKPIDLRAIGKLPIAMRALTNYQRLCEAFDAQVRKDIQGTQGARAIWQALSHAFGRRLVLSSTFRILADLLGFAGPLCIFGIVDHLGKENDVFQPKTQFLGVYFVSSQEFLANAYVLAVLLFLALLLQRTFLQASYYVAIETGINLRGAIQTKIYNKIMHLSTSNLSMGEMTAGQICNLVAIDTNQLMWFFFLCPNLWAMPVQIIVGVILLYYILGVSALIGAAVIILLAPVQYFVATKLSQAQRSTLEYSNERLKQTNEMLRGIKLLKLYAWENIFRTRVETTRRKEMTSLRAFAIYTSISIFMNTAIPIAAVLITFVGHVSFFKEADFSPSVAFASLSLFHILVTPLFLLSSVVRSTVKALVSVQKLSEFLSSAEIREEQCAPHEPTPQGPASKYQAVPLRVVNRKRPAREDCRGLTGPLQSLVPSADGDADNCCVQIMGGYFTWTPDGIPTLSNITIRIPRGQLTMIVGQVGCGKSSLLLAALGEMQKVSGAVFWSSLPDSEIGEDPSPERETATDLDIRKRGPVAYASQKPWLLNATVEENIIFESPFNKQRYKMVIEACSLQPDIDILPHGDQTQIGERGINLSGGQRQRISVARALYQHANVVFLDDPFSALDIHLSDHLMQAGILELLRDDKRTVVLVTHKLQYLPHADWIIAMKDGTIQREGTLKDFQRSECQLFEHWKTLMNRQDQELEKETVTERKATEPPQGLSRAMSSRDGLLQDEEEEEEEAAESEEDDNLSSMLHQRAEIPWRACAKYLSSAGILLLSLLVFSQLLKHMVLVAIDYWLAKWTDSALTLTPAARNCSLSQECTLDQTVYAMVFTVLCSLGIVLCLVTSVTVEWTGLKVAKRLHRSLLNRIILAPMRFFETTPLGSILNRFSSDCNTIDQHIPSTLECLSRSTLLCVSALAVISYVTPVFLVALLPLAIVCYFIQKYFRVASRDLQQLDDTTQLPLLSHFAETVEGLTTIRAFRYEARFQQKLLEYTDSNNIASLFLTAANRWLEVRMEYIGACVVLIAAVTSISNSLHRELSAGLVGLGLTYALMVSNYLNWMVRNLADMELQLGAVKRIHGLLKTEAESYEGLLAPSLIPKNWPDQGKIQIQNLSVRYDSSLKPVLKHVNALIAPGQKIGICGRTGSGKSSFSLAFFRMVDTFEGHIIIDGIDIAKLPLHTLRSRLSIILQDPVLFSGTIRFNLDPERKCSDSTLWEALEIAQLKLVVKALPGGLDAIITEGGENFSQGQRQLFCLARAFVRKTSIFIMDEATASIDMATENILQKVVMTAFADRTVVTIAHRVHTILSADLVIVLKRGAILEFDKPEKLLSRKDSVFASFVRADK

As for `CCC(C)(C)N=C(NC#N)Nc1cccnc1` [P1075], in data set [1], the “displacement of [3H]iptakalim binding” value is “displaced”.
Consider `CC1=NS(=O)(=O)c2cc(Cl)ccc2N1` [diazoxide, reference compound], for which, in data set [2], the “effect on membrane potential” value is “remarkably hyperpolarized the membrane”. Besides, the “effect on KATP channel activity” value in [3] (setting [14]) is “dramatically enhanced KATP channel activity”.
On to `CC(C)NC(C)(C)C(C)C.Cl` [iptakalim, N-(1-methylethyl)-1,1,2-trimethyl-propylamine hydrochloride], for which, in data set [2] (5.5 mM glucose in external solution), the “effect on membrane potential and action potential firing” value was “slowly depolarized the membrane and elicited action potential firing”. Moreover, the “effect on membrane potential” value in data set [2] is given as “clearly depolarized the membrane”. The “effect on intracellular Ca2+ concentrations” value in data set [4] was “induced elevation of intracellular Ca^2+ concentrations”. For the same compound, the “increase of insulin secretion” value in data set [5] (100 μM) was “about 1.5 fold”. Besides, the “sensitivity of Kir6.2/SUR1 channels (opening)” value in data set [6] is given as “insensitivity”. For the same compound, the “effect on K+ currents” value in data set [7] was “significantly enhanced K^+ currents”. Also, in data set [8], the “displacement of specific binding of [3H]P1075” value is recorded as “displaced by iptakalim in a concentration-dependent manner”. Besides, in data set [9], the “effect on voltage-activated currents” value is on record as “selectively enhanced voltage-activated K^+”. The water solubility result in data set [10] is reported as “water-soluble”. In addition, the “effect on ramp pulse-induced KATP channel whole-cell current” value in [11] (100 μM bath-application) is given as “reduced the magnitude of the KATP channel current”. For the same compound, the “Hill coefficient of block of KATP channel current” value in [11] (whole-cell, concentration-inhibition curve) amounted to 0.7. For the same compound, the IC50 in data set [11] (whole-cell, concentration-inhibition curve, read-out: IC50 of block of KATP channel current) was 3.3 µM. In addition, the “effect on KATP channel activity” value in [3] (setting [14]) was “reduced channel activities”; in data set [3] (100 μM, Vp −60 mV), “reduced KATP channel activity”. Besides, in [3] (during application of 100 μM, before application 0.43±0.0438, Vp 0 mV), the “open-time probability of KATP channels” value stood at 0.121±0.026. Moreover, the “current amplitude of KATP channels” value in data set [3] (during application of 100 μM, before application 3.51±0.17 pA, Vp 0 mV) worked out at 3.16±0.14 pA. Besides, in data set [3] (during application of 100 μM, before application 5.95±0.62 ms, Vp 0 mV), the “mean open time of KATP channels” value is 8.78 ± 0.81 ms. The mean open-time probability in data set [12] (absence of ATP, reduced from 0.359±0.065) came out at 0.145±0.041; in data set [12] (presence of 10 μM ATP, reduced from 0.222±0.042), 0.103±0.029.
Regarding `CC(N/C(=N\C#N)Nc1ccncc1)C(C)(C)C` (stereo not shown) [pinacidil], the “displacement of [3H]iptakalim binding” value in data set [1] is “displaced”. For the same compound, the “effect on β-cell KATP channels” value in [13] was “showed inhibition of β-cell KATP channels”.
Turning to `CCCCNC(=O)NS(=O)(=O)c1ccc(C)cc1` [tolbutamide, reference compound], in data set [5] (500 μM), the “increase of insulin secretion” value is “about 2.5 fold”. The “effect on ramp pulse-induced KATP channel whole-cell current” value in data set [11] (500 μM) was “reversibly abolished the size of the current”. Moreover, the “effect on KATP channel activity” value in data set [3] (500 μM bath-application, Vp 0 mV) was “completely abolished KATP channel activity”. In addition, the “sensitivity of spontaneous single channel activities” value in [3] (500 μM bath-applied, Vp −60 mV) is listed as “very sensitive”.
